Where a name gives a salt, the structure may show the parent alone.
Experiments:
Format in all cases: physicochemical
[1] = Water solubility of Form S16 (European Pharmacopoeia classification)
[2] = Stability test in 0-100% relative humidity cells, 7 days, room temperature (XRPD and TGA); conditions: for Polymorphically stable up to (relative humidity): 7 days at room temperature; for Equilibrium amount of water: from TGA of the humidity test
Protocol: A sample of form S14 was equilibrated in 0-100% relative humidity cells for 7 days at room temperature. The samples were analyzed by XRPD and TGA. […] 10-15 mg samples were placed into 150 μL alumina crucibles and scanned between 25-250° C. at 10°/minute heating rate under 40 ml/minute N2 flow rate. For XRPD the ARL instrument was used. A sample of form S16 was equilibrated in 0-100% relative humidity cells for 7 days at room temperature. The samples were analyzed by XRPD and TGA. […] 10-15 mg samples were placed into 150 μL alumina crucibles and scanned between 25-250° C. at 10°/minute heating rate under 40 ml/minute N2 flow rate. For XRPD the ARL instrument was used.

[3] = Chemical and polymorphic storage stability of Form S14; conditions: six months at 25° C.
Protocol: (§1) Solubility was tested by addition of portions of […] solution to 25 mg of STG salt and stirring it at 37° C. for 1-2 minutes till dissolved. Form S14 was also found to be chemically and polymorphically stable.

[4] = Solubility of Form S14 in aqueous media at 37° C.; conditions: for solubility: thermodynamic from solid, read-out: Concentration (solubility)
Protocol: as §1

[5] = Storage of a crystalline form under controlled relative humidity, form determined by powder XRD
Protocol: About 100 mg of Sitagliptin L-malate form I1 was put in an open yellow plastic cap, and kept at 100% relative humidity (RH) and room temperature for 6 days. It was then analyzed by powder XRD, and found to have transformed into form I2.
About 150 mg of Sitagliptin sulfate form S2 was put in an open Petri dish, and kept at 100±5% RH and room temperature for 12 days. It was then analyzed by powder XRD, and found to have transformed into form S9.
About 150 mg of Sitagliptin sulfate form S6 was put in an open Petri dish, and kept at 100±5% RH and room temperature for 12 days. It was then analyzed by powder XRD, and found to have transformed into form S9.
About 150 mg of Sitagliptin sulfate form S14 was stored under 80% RH at 25° C. for 7 days. The sample was then tested by XRPD and determined to be crystal form Si of Sitagliptin sulfate.
About 150 mg of Sitagliptin sulfate form S14 was stored under 100% RH at 25° C. for 7 days.
About 150 mg of Sitagliptin sulfate form S14 was stored under 70% RH at 25° C. for 7 days. The sample was then tested by XRPD and determined to be crystal form S1 of Sitagliptin sulfate.
About 150 mg of Sitagliptin sulfate form S14 was stored under 60% RH at 40° C. for 3 days. The sample was then tested by XRPD and determined to be crystal form S1 of Sitagliptin sulfate.

[6] = 0% RH, 7 days, room temperature
[7] = 20% RH, 7 days, room temperature
[8] = 40% RH, 7 days, room temperature
[9] = 60% RH, 7 days, room temperature
[10] = 80% RH, 7 days, room temperature
[11] = 100% RH, 7 days, room temperature

| Hygroscopicity [2] | % weight loss (TGA) [2, 6] [%] | % weight loss (TGA) [2, 7] [%] | % weight loss (TGA) [2, 8] [%] | % weight loss (TGA) [2, 9] [%] | % weight loss (TGA) [2, 10] [%] | % weight loss (TGA) [2, 11] [%] | Polymorphically stable up to (relative humidity) [2] | % weight loss (TGA) ([2]; Before the experiment) [%] | Equilibrium amount of water [2] | Structure (SMILES) | also measured |
| --- | --- | --- | --- | --- | --- | --- | --- | --- | --- | --- | --- |
| low hygroscopicity | 2.9 | 2.9 | 2.9 | 2.9 | 4.4 | 8.9 | up to 60 % RH | 3.0 | about 2.9% | N[C@@H](CC(=O)N1CCn2c(nnc2C(F)(F)F)C1)Cc1cc(F)c(F)cc1F [Form S16, Sitagliptin sulfate] | Solubility classification ([1]; classification of the European Pharmacopoeia Commission 01/2008:5110): freely soluble; solubility ([1]; in 1 mL of water, read-out: Amount soluble in 1 mL of water): ≥ 100 mg/mL; Constant water content ([2]; corresponds to the sesquihydrate): 2.9% |
| hygroscopic | 2.3 | 2.0 | 1.9 | 2.4 | 4.4 | 8.9 | up to 60 % RH | 3.4 | about 2% | N[C@@H](CC(=O)N1CCn2c(nnc2C(F)(F)F)C1)Cc1cc(F)c(F)cc1F [Form S14, Sitagliptin sulfate] | Chemical and polymorphic stability [3]: No degradation or polymorphic transformation; solubility ([4]; aqueous medium, aqueous buffer, pH 4.5 37° C.): 500 mg/mL; solubility ([4]; aqueous medium, aqueous buffer, pH 6.8 37° C.): 330 mg/mL; solubility ([4]; aqueous medium, aqueous buffer, pH 7.8 37° C.): 300 mg/mL; solubility ([4]; aqueous medium, simulated gastric fluid, pH 1.2, 37° C.): 500 mg/mL; Solubility in different aqueous media ([4]; different aqueous media): highly soluble; solubility ([4]; Water 37° C.): 300 mg/mL; Form after storage (XRPD) ([5]; 80% RH at 25° C. for 7 days): Si; Form after storage (XRPD) ([5]; 100% RH at 25° C. for 7 days): polymorphic mixture of form S1 and form S11 |
